Measurements published in patent US4988686A, “Cephem compounds and anti-bacterial agent” (Meiji Seika Kabushiki Kaisha, priority 1988, dated 1991).
Converted amounts (≈) assume the structure as drawn. Read-outs that look alike come from different tables or passages of the source.

Tests used:
Assay in all cases: agar-dilution method, minimum inhibitory concentration
Assay type in all cases: cell-based
Escherichia coli No. 29 = test system: Escherichia coli No. 29
From the text: (§1) In order to illustrate the utility of the objective compound (I), anti-bacterial activities measured by the agar-dilution method for some of these compounds (I) are shown in table 1.

[1] = test system: Enterobacter cloacae GN7471
From the text: as §1

[2] = test system: Cytrobacter freundii GN346; details: read-out: Minimum Inhibitory Concentration
From the text: as §1

[3] = test system: Klebsiella pneumoniae GN69
From the text: as §1

[4] = test system: Pseudomonas aeruginosa IMA-1007
From the text: as §1

[5] = test system: Pseudomonas cepacia M-0527; details: Burkholderia cepacia, M0527
From the text: as §1

Escherichia coli 255 = test system: Escherichia coli 255
From the text: as §1

[6] = test system: Bacillus subtilis ATCC 6633
From the text: as §1

[7] = test system: Pseudomonas aeruginosa E-2
From the text: as §1

[8] = test system: Serratia marcescens No. 1
From the text: as §1

[9] = test system: Staphylococcus aureus 209PJC-1
From the text: as §1

[10] = test system: Pseudomonas aeruginosa M-0148
From the text: as §1

Proteus vulgaris 76 = test system: Proteus vulgaris 76
From the text: as §1

[11] = Enterobacter cloacae GN7471, agar-dilution method, read-out: Minimum Inhibitory Concentration
[12] = Cytrobacter freundii GN346, agar-dilution method
[13] = Klebsiella pneumoniae GN69, agar-dilution method, read-out: Minimum Inhibitory Concentration
[14] = IMA1007, Pseudomonas aeruginosa IMA-1007, agar-dilution method, read-out: Minimum Inhibitory Concentration
[15] = ATCC6633, Bacillus subtilis ATCC 6633, agar-dilution method, read-out: Minimum Inhibitory Concentration
[16] = E2, Pseudomonas aeruginosa E-2, agar-dilution method, read-out: Minimum Inhibitory Concentration
[17] = Serratia marcescens No. 1, agar-dilution method, read-out: Minimum Inhibitory Concentration
[18] = 209PJC1, Staphylococcus aureus 209PJC-1, agar-dilution method, read-out: Minimum Inhibitory Concentration
[19] = M0148, Pseudomonas aeruginosa M-0148, agar-dilution method, read-out: Minimum Inhibitory Concentration
[20] = Proteus vulgaris 76, agar-dilution method, read-out: Minimum Inhibitory Concentration

MIC (Escherichia coli No. 29) | MIC [5] | MIC (Escherichia coli 255) | MIC [1, 11] | MIC [2, 12] | MIC [3, 13] | MIC [4, 14] | MIC [6, 15] | MIC [7, 16] | MIC [8, 17] | MIC [9, 18] | MIC [10, 19] | MIC (Proteus vulgaris 76; [20]) | SMILES | other results
0.1 µg/mL (≈ 0.147 µM) | ≤ 0.025 µg/mL | 0.1 µg/mL (≈ 0.147 µM) | 1.56 µg/mL (≈ 2.29 µM) | 6.25 µg/mL (≈ 9.17 µM) | 0.1 µg/mL (≈ 0.147 µM) | ≤ 0.025 µg/mL | 12.5 µg/mL (≈ 18.3 µM) | 0.05 µg/mL (≈ 0.0733 µM) | 0.1 µg/mL (≈ 0.147 µM) | 100 µg/mL (≈ 147 µM) | 0.2 µg/mL (≈ 0.293 µM) | 0.05 µg/mL (≈ 0.0733 µM) | CC(C)(O/N=C(\C(=O)N[C@@H]1C(=O)N2C(C(=O)O)=C(/C=C/c3cc(=O)c(O)cn3Cc3ccncc3)CS[C@H]12)c1csc(N)n1)C(=O)O [Example 21, (6R,7R)-7-[(Z)-2-aminothiazol-4-y1)-2-(1-methyl-1-carboxy)ethoxyiminoacetamido]-3-[2-(5-hydroxy-1-(4-pyridyl)methyl-4-pyridon-2-y1)vinyl]-ceph-3-em-4carboxylic acid, trans-isomer] | 
0.1 µg/mL (≈ 0.165 µM) | ≤ 0.025 µg/mL | ≤ 0.025 µg/mL | 0.78 µg/mL (≈ 1.29 µM) | 12.5 µg/mL (≈ 20.6 µM) | ≤ 0.025 µg/mL | ≤ 0.025 µg/mL | 100 µg/mL (≈ 165 µM) | ≤ 0.025 µg/mL | 0.05 µg/mL (≈ 0.0824 µM) | > 100 µg/mL | ≤ 0.025 µg/mL | ≤ 0.025 µg/mL | CC(C)(O/N=C(\C(=O)N[C@@H]1C(=O)N2C(C(=O)O)=C(/C=C/c3cc(=O)c(O)cn3O)CS[C@H]12)c1csc(N)n1)C(=O)O [Example 5, (6R,7R)-7-[(Z)-2-(2-aminothiazol-4-yl)-2-(1-methyl-1carboxy)ethoxyiminoacetamido]-3-[2-(1,5-dihydroxy-4-pyridon-2-yl)vinyl]-ceph-3-em-4-carboxylic acid, trans-isomer] | 
0.2 µg/mL (≈ 0.365 µM) | 12.5 µg/mL (≈ 22.8 µM) | 0.2 µg/mL (≈ 0.365 µM) | 1.56 µg/mL (≈ 2.84 µM) | 25 µg/mL (≈ 45.6 µM) | 0.2 µg/mL (≈ 0.365 µM) | 0.78 µg/mL (≈ 1.42 µM) | 0.78 µg/mL (≈ 1.42 µM) | 0.78 µg/mL (≈ 1.42 µM) | 0.2 µg/mL (≈ 0.365 µM) | 12.5 µg/mL (≈ 22.8 µM) | 12.5 µg/mL (≈ 22.8 µM) | 0.1 µg/mL (≈ 0.182 µM) | CO/N=C(\C(=O)N[C@@H]1C(=O)N2C(C(=O)O)=C(/C=C\c3cc(=O)c(O)cn3OC)CS[C@H]12)c1csc(N)n1 [Example 10] | 
≤ 0.025 µg/mL | ≤ 0.025 µg/mL | ≤ 0.025 µg/mL | 0.05 µg/mL (≈ 0.0935 µM) | 0.1 µg/mL (≈ 0.187 µM) | 0.05 µg/mL (≈ 0.0935 µM) | 0.1 µg/mL (≈ 0.187 µM) | 6.25 µg/mL (≈ 11.7 µM) | 0.1 µg/mL (≈ 0.187 µM) | ≤ 0.025 µg/mL | 25 µg/mL (≈ 46.8 µM) | 0.2 µg/mL (≈ 0.374 µM) | ≤ 0.025 µg/mL | CO/N=C(\C(=O)N[C@@H]1C(=O)N2C(C(=O)O)=C(/C=C/c3cc(=O)c(O)cn3O)CS[C@H]12)c1csc(N)n1 [Example 2, (6R, 7R)-7-[(Z)-2-(2-aminothiazol-4-yl)-2-methoxyiminoacetamido]-3-[2-(1,5-dihydroxy-4-pyridon-2-yl)vinyl]-ceph-3-em-4-carboxylic] | 
0.1 µg/mL (≈ 0.165 µM) | ≤ 0.025 µg/mL | 0.05 µg/mL (≈ 0.0827 µM) | 0.2 µg/mL (≈ 0.331 µM) | 3.13 µg/mL (≈ 5.18 µM) | 0.05 µg/mL (≈ 0.0827 µM) | ≤ 0.025 µg/mL | 12.5 µg/mL (≈ 20.7 µM) | 0.05 µg/mL (≈ 0.0827 µM) | 0.1 µg/mL (≈ 0.165 µM) | 100 µg/mL (≈ 165 µM) | 0.2 µg/mL (≈ 0.331 µM) | ≤ 0.025 µg/mL | Cn1cc(O)c(=O)cc1/C=C/C1=C(C(=O)O)N2C(=O)[C@@H](NC(=O)/C(=N\OC(C)(C)C(=O)O)c3csc(N)n3)[C@H]2SC1 [Example 12, (6R,7R)-7-[(Z)-2-(2-aminothiazol-4-y1)-2-(1-methyl-1carboxy)ethoxyiminoacetamido]-3-[2-(5-hydroxy-1-methyl-4-pyridon-2-yl)vinyl]-ceph-3-em-4-carboxylic acid, trans-isomer] | 
0.05 µg/mL (≈ 0.0939 µM) | ≤ 0.025 µg/mL | 0.1 µg/mL (≈ 0.188 µM) | 0.1 µg/mL (≈ 0.188 µM) | 1.56 µg/mL (≈ 2.93 µM) | 0.05 µg/mL (≈ 0.0939 µM) | 1.56 µg/mL (≈ 2.93 µM) | 0.78 µg/mL (≈ 1.46 µM) | 1.56 µg/mL (≈ 2.93 µM) | ≤ 0.025 µg/mL | 6.25 µg/mL (≈ 11.7 µM) | 12.5 µg/mL (≈ 23.5 µM) | ≤ 0.025 µg/mL | CO/N=C(\C(=O)N[C@@H]1C(=O)N2C(C(=O)O)=C(/C=C/c3cc(=O)c(O)cn3C)CS[C@H]12)c1csc(N)n1 [Example 7, (6R ,7R)-7 - [(Z )-2-(2-aminothiazol-4-yl)-2-methoxyiminoacetamido]-3-[2-(5-hydroxy-1-methyl-4-pyridon-2-yl)vinyl]-ceph-3-em-4-carboxylic acid, trans-isomer] | 

SMILES | MIC (Escherichia coli No. 29) | MIC [5] | MIC (Escherichia coli 255) | MIC [1, 11] | MIC [2, 12] | MIC [3, 13] | MIC [4, 14] | MIC [6, 15] | MIC [7, 16] | MIC [8, 17] | MIC [9, 18] | MIC [10, 19] | MIC (Proteus vulgaris 76; [20]) | other results
CC(C)(O/N=C(\C(=O)N[C@@H]1C(=O)N2C(C(=O)[O-])=C(C[n+]3ccccc3)CS[C@H]12)c1csc(N)n1)C(=O)O [Ceftazidime, reference compound] | 0.2 µg/mL (≈ 0.366 µM) | 0.39 µg/mL (≈ 0.714 µM) | 25 µg/mL (≈ 45.7 µM) |  |  |  |  |  |  |  |  |  |  | MIC ([1]; Enterobacter cloacae, GN7471, read-out: Minimum Inhibitory Concentration): 3.13 µg/mL (≈ 5.73 µM); MIC [2]: 25 µg/mL (≈ 45.7 µM); MIC ([3]; Klebsiella pneumoniae, GN69, read-out: Minimum Inhibitory Concentration): 0.1 µg/mL (≈ 0.183 µM); MIC ([4]; Pseudomonas aeruginosa, IMA1007, read-out: Minimum Inhibitory Concentration): 0.78 µg/mL (≈ 1.43 µM); MIC ([6]; Bacillus subtilis, ATCC6633, read-out: Minimum Inhibitory Concentration): 3.13 µg/mL (≈ 5.73 µM); MIC ([7]; Pseudomonas aeruginosa, E2, read-out: Minimum Inhibitory Concentration): 0.39 µg/mL (≈ 0.714 µM); MIC ([8]; Serratia marcescens, NO.1, read-out: Minimum Inhibitory Concentration): ≤ 0.025 µg/mL; MIC ([9]; Staphylococcus aureus, 209PJC1, read-out: Minimum Inhibitory Concentration): 3.13 µg/mL (≈ 5.73 µM); MIC ([10]; Pseudomonas aeruginosa, M0148, read-out: Minimum Inhibitory Concentration): 1.56 µg/mL (≈ 2.85 µM); MIC (Proteus vulgaris 76; Proteus vulgaris, 76, read-out: Minimum Inhibitory Concentration): 0.05 µg/mL (≈ 0.0915 µM)
